# Test results from article PMC12567096, “An Efficacy- and In Vivo Exposure-Oriented Integrated Study to Investigate the Effective Components of Qishen Granule” (Pharmaceuticals, 2025).
# Read-outs that look alike come from different tables or passages of the source.
# What was measured:
# [1] = rat, in vivo
# H9c2 cells = assay: Cytotoxicity on H9c2 cells (CCK-8); assay type: cell-based, rat; conditions: for Inhibition rate: H9c2 cells, n=3
# Experimental: (§1) Rat myocardial H9c2 cells (purchased from China Infrastructure of Cell Line Resources, Institute of Basic Medical Sciences, Chinese Academy of Medical Sciences) were cultured in DMEM supplemented with 10% fetal bovine serum (FBS), Penicillin (100 U/mL), and Streptomycin (100 μg/mL) at 37 °C under a humidified atmosphere of 5% CO2 and 95% air. For OGD/R treatment, H9c2 cells were cultured in glucose-free DMEM under hypoxic conditions (95%N2 + 5%CO2) for 4 h at 37 °C followed by complete medium under normal conditions with air (95%) and CO2 (5%) for 2 h. A control group was maintained under normal culture conditions (with glucose-containing DMEM and 5% CO2) without undergoing OGD/R treatment. CCK8 was used to assess cell viability. After treatment, H9c2 cells were seeded in 96-well plates, with each well supplemented with 10 μL of CCK-8 solution and then incubated for 1 h. Finally, the absorbance at 450 nm was detected by a microplate reader (Model […] 200 PRO, TECAN, Grodig, Austria).
# When evaluating the cytotoxicities of the absorbed compounds, the H9c2 cells were seeded in 96-well plates at a density of 1 × 10^4 cells/well; when cells reached 80% confluence, […] Afterward, the protective effects were verified by assessing the cell viability when treating with different concentrations (1, 10, 25, 50, and 100 μM) of the analytes prior to OGD/R treatment.
# OGD/R-induced H9c2 cells = assay: Protective effect on OGD/R-induced H9c2 cells (CCK-8 cell viability); assay type: cell-based, rat; conditions: for H9c2 cell survival after OGD/R (in words): 1, 10, 25, 50 and 100 μM prior to OGD/R, vs model group
# Experimental: as §1
# When evaluating the cytotoxicities of the absorbed compounds, the H9c2 cells were seeded in 96-well plates at a density of 1 × 10^4 cells/well; when cells reached 80% confluence, they were treated with 25 and 50 μM of the 24 analytes to screen the non-toxic concentration ranges. Afterward, the protective effects were verified by assessing the cell viability when treating with different concentrations (1, 10, 25, 50, and 100 μM) of the analytes prior to OGD/R treatment.
# [2] = Pharmacokinetic study in rats after oral administration of QSG
# [3] = Concentrations of 24 analytes in QSG treated plasma (Table S5); conditions: QSG treated plasma, n = 5
# [4] = rat plasma, single oral 7 g/kg QSG, n = 6
smiles,measurement,setting,value
O=c1cc(-c2ccc(O)c(O)c2)oc2cc(O[C@@H]3O[C@H](CO)[C@@H](O)[C@H](O)[C@H]3O)cc(O)c12 [Luteoloside],Oral relative bioavailability,[1],0.019%
same,AUC0→∞,[1]; po,20.86 ng·h/mL
same,Shape of the plasma concentration–time curve (in words),[1]; po,Double peaks
same,AUC0→t,"[1]; po, 7 g/kg",12.39 ± 2.708 ng·h/mL
same,AUC0→∞,"[1]; po, 7 g/kg",20.86 ± 6.586 ng·h/mL
same,T1/2,"[1]; po, 7 g/kg",21.76 ± 16.85 h
same,Inhibition rate,H9c2 cells; 25 μM,-4.2 ± 4.7%
same,Inhibition rate,H9c2 cells; 50 μM,8.1 ± 5.7%
same,Inhibition rate,H9c2 cells; 100 μM,4.1 ± 1.7%
same,H9c2 cell survival after OGD/R (in words),OGD/R-induced H9c2 cells,significantly improve H9c2 cell survival rates
O=C(/C=C/c1ccc(O)c(O)c1)O[C@H]1[C@H](O)C[C@](O)(C(=O)O)C[C@H]1OC(=O)/C=C/c1ccc(O)c(O)c1 [Isochlorogenic acid C],Inhibition rate,H9c2 cells; 25 μM,-11.8 ± 6.3%
same,Inhibition rate,H9c2 cells; 50 μM,-16.6 ± 1.3%
same,Inhibition rate,H9c2 cells; 100 μM,-6.3 ± 2.3%
same,Effect on H9c2 cell viability / cytotoxicity (in words),"H9c2 cells; CCK-8, compared to the control group",significantly enhanced cell viabilities
same,H9c2 cell survival after OGD/R (in words),OGD/R-induced H9c2 cells,significantly improve H9c2 cell survival rates
same,EC50,"OGD/R-induced H9c2 cells; protective effect against OGD/R injury, H9c2 cell viability",1090 nM
same,AUC0→∞,"[2]; Table S12, rats, oral QSG",170.5 ng·h/mL
same,AUCi,"[2]; exposure (AUC0→∞) of the component in rats after oral QSG, as used for ECI",170.5
same,Oral relative bioavailability,[2]; exposure level (AUC0→∞) compared with the dosage of each compound in QSG,0.008%
same,Absorption efficiency / bioavailability (in words),"[2]; from Table S12, rats, oral QSG",less readily absorbed
same,AUC0→t,[2]; [4],116.3 ± 39.63 ng·h/mL
same,AUC0→∞,[2]; [4],170.5 ± 80.02 ng·h/mL
same,Cmax,[2]; [4],33.95 ± 8.980 ng/mL
same,MRT,[2]; [4],8.361 ± 4.800 h
same,T1/2,[2]; [4],16.43 ± 14.14 h
same,Tmax,[2]; [4],0.334 ± 0.165 h
same,Shape of the plasma concentration–time curve (in words),"[2]; rats, oral QSG",Double peaks
same,Concentration,[3]; 0.08 h,12.829 ± 7.386 ng/mL
same,Concentration,[3]; 0.17 h,23.904 ± 9.523 ng/mL
same,Concentration,[3]; 0.5 h,18.491 ± 8.090 ng/mL
same,Concentration,[3]; 1 h,11.005 ± 7.334 ng/mL
same,Concentration,[3]; 2 h,7.777 ± 3.293 ng/mL
same,Concentration,[3]; 4 h,2.637 ± 2.154 ng/mL
same,Concentration,[3]; 8 h,7.703 ± 2.363 ng/mL
same,Concentration,[3]; 12 h,1.848 ± 1.625 ng/mL
